# Experimental data published in article PMC8429736, “Pharmacological characterization of mutant huntingtin aggregate-directed PET imaging tracer candidates” (Scientific Reports, 2021).
# Where two headings read alike, the source gives them in different places.
# What was measured:
# [1] = In vitro ARG, single concentration, WT mouse brain sections; type: binding; conditions: 0.5 nM
# Method: (§1) Twenty µm-thick sections were prepared from brains of disease mouse models and WT mice or human post-mortem brain samples by using a cryostat, mounted on superfrost slides and stored at -80 °C for a maximum of 2 weeks. On the day of the experiment, slides were adapted to room temperature for 30 min and then equilibrated by immersion into assay buffer (50 mM Tris–HCl pH 7.4; 120 mM NaCl; 5 mM KCl; 2 mM CaCl2; 1 mM MgCl2) for 20 min at room temperature.
# (§2) Radioligand solutions were prepared in assay buffer. Optimal radioligand concentrations were determined in advance based on signal-to-background ratio obtained in mouse or human brain tissue. The solutions were mixed in a Coplin jar (Sigma, S5516-6EA) by gently shaking at 175 rpm for 10 min at room temperature. Sections were incubated by immersion into assay buffer containing either only radioligand (total binding or TB) or radioligand plus 10 µM of unlabeled compound (non-specific binding or NSB) for 60 min at room temperature. Afterwards slides were washed three times for 10 min with ice-cold washing buffer (50 mM Tris–HCl (pH 7.4)) at 4 °C and dipped for three seconds in ice-cold distilled water to remove buffer salts. The slides were dried for 3 h at 30 °C and exposed for 96 h to a Tritium Phosphor Screen (GE Healthcare, Fuji BAS-TR 2025 E) Stored radiation energy on the screen was scanned using a Phosphorimager (GE Healthcare, Typhoon FLA 7000). Densitometric data analysis of radioligand binding was performed using the MCID Analysis 7.1 software (Interfocus Imaging Ltd.). Radioisotope concentration standards (American Radiolabeled Chemicals, ART 0123C and ART 0123B) were exposed with each specimen to enable conversion of density values into tissue-equivalent ligand concentrations (e.g., fmol/mg tissue). A standard curve was created to relate the system´s internal relative optical density measurement (ROD; an inverse logarithmic function of gray level values) to the set of standard values (e.g., isotope concentration). The standard´s isotope concentration (e.g., nCi/mg) is therefore converted into tissue-equivalent ligand concentrations (e.g., fmol/mg tissue) by referring to the radioligand´s specific activity (e.g., Ci/mmol) and including decay-correction. After phosphor screen exposure the human brain sections were stained for 4 min with 0.1% toluidine blue dye solution (Sigma-Aldrich) and rinsed twice in distilled water. To differentiate gray and white matter, the slides were decolorized with 70% ethanol (Merck) for 2–5 min followed by rinse in distilled water. Gray matter appears as gray color and white matter as bluish.
# [2] = biological target: Q46 aggregates; assay: RBA competition binding against tritiated 3, Q46 aggregates; conditions: 0.3 nM tritiated 3 as radioligand; 1 µM aggregates; mean ± SD
# Method: (§3) For the competition assay format, Q46 or Exon1-Q46 aggregates at 1 µM (sample volume 150 µL) were pre-incubated in a 96-well round bottom plate (Corning, #3365) for 20 min with test compounds at room temperature (assay buffer 50 mM Tris–HCl pH 8.0, 150 mM NaCl). […] Radioligand 3 at 0.3 nM was added and incubated for 1 h at 37 °C.
# (§4) Samples were then transferred onto a 96-well GF/B filter plate (Perkin Elmer, #6005177) using a Filtermate Harvester, aspirated by vacuum and wells washed twice with 200 µL PBS. After drying the filter plates for 1 h at 55 °C the back of the plate was sealed with aluminum cover and 30 µL of scintillation fluid (Perkin Elmer, #6013641) per well was added. The tops of the plates were sealed, and the plates were incubated for 15 min in the dark and counted in a TopCount or MicroBeta2 reader (both Perkin Elmer).
# (§5) Raw sample data collected as counts per minute (cpm) were normalized towards assay controls: 0% inhibition = radioligand + protein + vehicle, 100% inhibition = radioligand + protein + 1 µM unlabeled ligand. A 4-parameter […] fit was applied to generate IC50 values.
# [3] = test system: mHTT aggregates in HOM zQ175 brain sections; assay: In vitro ARG, single concentration, HOM zQ175 brain sections; type: binding, mouse; conditions: 0.5 nM
# Method: as §1, §2
# [4] = biological target: T1, Exon1-Q46 aggregates (Homo sapiens, UniProt P42858, INS38QQQQQQQQQQQQQQQQQQQQQQQQQ); assay: RBA competition binding against tritiated 3, Exon1-Q46 aggregates
# T1 construct: MBP-HTT(1-89)Q46-His(6x); MBP (N, cleaved yes); made in house; host or cells: E. coli BL21 (DE3)
# Method: as §3, §4, §5
# T1 sequence (P42858 with tags, fused parts or gaps with the stated changes): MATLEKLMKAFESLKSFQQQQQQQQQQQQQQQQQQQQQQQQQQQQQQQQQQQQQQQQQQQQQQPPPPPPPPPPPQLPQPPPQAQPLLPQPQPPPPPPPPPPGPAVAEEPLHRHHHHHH
smiles,measurement,setting,value
COc1ccc(COc2ccc3oc(-c4ccc(=O)n(C)n4)nc3c2)nc1 [CHDI-180],NSB,"[1]; 3 month WT, CTX",0.6 ± 0.5 fmol/mg
same,SB,"[1]; 3 month WT, CTX",1.3 ± 1.0 fmol/mg
same,TB,"[1]; 3 month WT, CTX",1.9 ± 0.5 fmol/mg
same,NSB,"[1]; 3 month WT, HPC",0.5 ± 0.6 fmol/mg
same,SB,"[1]; 3 month WT, HPC",1.6 ± 0.6 fmol/mg
same,TB,"[1]; 3 month WT, HPC",2.0 ± 0.4 fmol/mg
same,NSB,"[1]; 3 month WT, STR",0.7 ± 0.6 fmol/mg
same,SB,"[1]; 3 month WT, STR",1.1 ± 0.4 fmol/mg
same,TB,"[1]; 3 month WT, STR",1.8 ± 0.3 fmol/mg
same,NSB,"[1]; 6 month WT, CTX",0.5 ± 0.6 fmol/mg
same,SB,"[1]; 6 month WT, CTX",1.2 ± 0.5 fmol/mg
same,TB,"[1]; 6 month WT, CTX",1.8 ± 0.1 fmol/mg
same,NSB,"[1]; 6 month WT, HPC",0.6 ± 0.8 fmol/mg
same,SB,"[1]; 6 month WT, HPC",1.5 ± 0.1 fmol/mg
same,TB,"[1]; 6 month WT, HPC",2.2 ± 0.7 fmol/mg
same,NSB,"[1]; 6 month WT, STR",0.4 ± 0.5 fmol/mg
same,SB,"[1]; 6 month WT, STR",1.6 ± 0.1 fmol/mg
same,TB,"[1]; 6 month WT, STR",2.0 ± 0.6 fmol/mg
same,NSB,"[1]; 9 month WT, CTX",0.1 ± 0.2 fmol/mg
same,SB,"[1]; 9 month WT, CTX",1.2 ± 0.2 fmol/mg
same,TB,"[1]; 9 month WT, CTX",1.3 ± 0.4 fmol/mg
same,NSB,"[1]; 9 month WT, HPC",0.6 ± 0.8 fmol/mg
same,SB,"[1]; 9 month WT, HPC",1.1 ± 0.5 fmol/mg
same,TB,"[1]; 9 month WT, HPC",1.8 ± 0.5 fmol/mg
same,NSB,"[1]; 9 month WT, STR",0.0 ± 0.0 fmol/mg
same,SB,"[1]; 9 month WT, STR",1.6 ± 0.1 fmol/mg
same,TB,"[1]; 9 month WT, STR",1.6 ± 0.1 fmol/mg
same,NSB,"[1]; 12 month WT, CTX",0.1 ± 0.1 fmol/mg
same,SB,"[1]; 12 month WT, CTX",1.2 ± 0.2 fmol/mg
same,TB,"[1]; 12 month WT, CTX",1.3 ± 0.3 fmol/mg
same,NSB,"[1]; 12 month WT, HPC",0.0 ± 0.1 fmol/mg
same,SB,"[1]; 12 month WT, HPC",1.6 ± 0.5 fmol/mg
same,TB,"[1]; 12 month WT, HPC",1.6 ± 0.4 fmol/mg
same,NSB,"[1]; 12 month WT, STR",0.2 ± 0.2 fmol/mg
same,SB,"[1]; 12 month WT, STR",1.2 ± 0.2 fmol/mg
same,TB,"[1]; 12 month WT, STR",1.3 ± 0.0 fmol/mg
same,IC50,[2],1.2 ± 0.5 nM
same,NSB,"[3]; 3 month HOM Q175, CTX",1.3 ± 2.2 fmol/mg
same,SB,"[3]; 3 month HOM Q175, CTX",4.3 ± 2.3 fmol/mg
same,TB,"[3]; 3 month HOM Q175, CTX",5.6 ± 0.3 fmol/mg
same,NSB,"[3]; 3 month HOM Q175, HPC",0.3 ± 0.3 fmol/mg
same,SB,"[3]; 3 month HOM Q175, HPC",4.8 ± 0.4 fmol/mg
same,TB,"[3]; 3 month HOM Q175, HPC",5.1 ± 0.3 fmol/mg
same,NSB,"[3]; 3 month HOM Q175, STR",0.4 ± 0.4 fmol/mg
same,SB,"[3]; 3 month HOM Q175, STR",3.5 ± 0.3 fmol/mg
same,TB,"[3]; 3 month HOM Q175, STR",3.9 ± 0.5 fmol/mg
same,NSB,"[3]; 6 month HOM Q175, CTX",0.2 ± 0.4 fmol/mg
same,SB,"[3]; 6 month HOM Q175, CTX",24.4 ± 1.4 fmol/mg
same,TB,"[3]; 6 month HOM Q175, CTX",24.6 ± 1.0 fmol/mg
same,NSB,"[3]; 6 month HOM Q175, HPC",0.1 ± 0.0 fmol/mg
same,SB,"[3]; 6 month HOM Q175, HPC",25.0 ± 1.6 fmol/mg
same,TB,"[3]; 6 month HOM Q175, HPC",25.1 ± 1.6 fmol/mg
same,NSB,"[3]; 6 month HOM Q175, STR",0.3 ± 0.2 fmol/mg
same,SB,"[3]; 6 month HOM Q175, STR",15.8 ± 2.7 fmol/mg
same,TB,"[3]; 6 month HOM Q175, STR",16.1 ± 2.9 fmol/mg
same,NSB,"[3]; 9 month HOM Q175, CTX",0.9 ± 0.8 fmol/mg
same,SB,"[3]; 9 month HOM Q175, CTX",48.8 ± 8.3 fmol/mg
same,TB,"[3]; 9 month HOM Q175, CTX",49.7 ± 7.4 fmol/mg
same,NSB,"[3]; 9 month HOM Q175, HPC",0.2 ± 0.2 fmol/mg
same,SB,"[3]; 9 month HOM Q175, HPC",41.3 ± 2.2 fmol/mg
same,TB,"[3]; 9 month HOM Q175, HPC",41.5 ± 2.4 fmol/mg
same,NSB,"[3]; 9 month HOM Q175, STR",0.4 ± 0.4 fmol/mg
same,SB,"[3]; 9 month HOM Q175, STR",28.4 ± 2.4 fmol/mg
same,TB,"[3]; 9 month HOM Q175, STR",28.8 ± 2.7 fmol/mg
same,NSB,"[3]; 12 month HOM Q175, CTX",0.8 ± 0.7 fmol/mg
same,SB,"[3]; 12 month HOM Q175, CTX",70.2 ± 10.5 fmol/mg
same,TB,"[3]; 12 month HOM Q175, CTX",70.9 ± 11.0 fmol/mg
same,NSB,"[3]; 12 month HOM Q175, HPC, n=2",0.4 ± 0.7 fmol/mg
same,NSB,"[3]; 12 month HOM Q175, STR",0.4 ± 0.3 fmol/mg
same,SB,"[3]; 12 month HOM Q175, STR",41.3 ± 2.8 fmol/mg
same,TB,"[3]; 12 month HOM Q175, STR",41.6 ± 3.1 fmol/mg
same,IC50,"[4]; 0.3 nM tritiated 3 as radioligand, 1 µM aggregates, mean ± SD, read-out: IC50 Exon1-Q46",1.3 ± 0.7 nM
same,Hill Slope,"[4]; against tritiated 3, representative single experiment (Fig. 2B)",0.89
same,IC50,"[4]; against tritiated 3, representative single experiment (Fig. 2B), read-out: IC50",1.4 nM
